We go through 11 compounds from publication PMC4354947 (Journal of medicinal chemistry, 2012).

Read-outs that look alike come from different tables or passages of the source.

The subject of one data set is human eNPP1. The experiment in a line: Resistance to degradation by human eNPP1. Type of data set: in vitro ADME. The conditions noted are these: after 20 min, 37 °C, pH 8.5.
The subject of data set [1] is blood glucose levels. Nature of the data set: Oral glucose tolerance test in naive mice. Type of data set: in vivo, mouse. The conditions noted are these: OGTT; for effect on blood glucose levels: 30 mg/kg iv.
The target of data set [2] is T1, turkey P2Y1 receptor (Meleagris gallopavo, UniProt P49652). The experiment in a line: Increase in [Ca2+]i in 1321N1 astrocytoma cells expressing turkey P2Y1 receptor. Type of data set: cell-based.
Another data set deals with P2Y2 receptor. The experiment in a line: Agonist activity at P2Y2 receptor. The following applies: data not shown. It is filed as cell-based.
For a further data set, the system named is P2Y4 receptor. Nature of the data set: Agonist activity at P2Y4 receptor. Type of data set: cell-based. The following applies: data not shown.
The subject of the next data set is P2Y6 receptor. The experiment in a line: Agonist activity at P2Y6 receptor. It is filed as cell-based. The following applies: data not shown.
Data set [3] relates to blood glucose levels. Nature of the data set: Oral glucose tolerance test in naive rats. The following applies: OGTT, 30 mg/kg iv, within 45 min, saline 155 mg/dL. It is filed as in vivo, rat.
In data set [4] the test system is blood glucose levels. Nature of the data set: Glucose tolerance test in STZ diabetic mouse model. Type of data set: in vivo. The conditions noted are these: STZ diabetic mice, 30 mg/kg iv.
Data set [5] has as its system blood glucose levels. The experiment in a line: Glucose tolerance test in db+/db- diabetic mouse model. It is filed as in vivo. The following applies: db+/db− mice, 30 mg/kg iv.
In a further data set the test system is tail bleeding. Nature of the data set: Tail-bleed assay in rats, oral administration. Type of data set: in vivo, rat. The following applies: oral 30 mg/kg, 30 min before tail-cut.
Data set [6] can be described thus: Solubility in aqueous media. Type of data set: physicochemical.
Data set [7] addresses T1, turkey P2Y1 receptor. The conditions noted are these: read-out: EC50 at P2Y1R, cited from earlier work.
The nature of data set [8]: Chemical stability at acidic pH 1.4. It is filed as physicochemical. The following applies: pH 1.4, 37 °C, pseudo-first-order model.
In another data set the test system is isolated rat pancreas. The following applies: listed as IA; cited from earlier work.
In a further data set the test system is insulin secretion. The conditions noted are these: cited from earlier work.
Where [9] appears, read: read-out: EC50 at P2Y1R, increase in [Ca2+]i, human 1321N1 astrocytoma cells, turkey P2Y1R.

T1 sequence (P49652 whole entry): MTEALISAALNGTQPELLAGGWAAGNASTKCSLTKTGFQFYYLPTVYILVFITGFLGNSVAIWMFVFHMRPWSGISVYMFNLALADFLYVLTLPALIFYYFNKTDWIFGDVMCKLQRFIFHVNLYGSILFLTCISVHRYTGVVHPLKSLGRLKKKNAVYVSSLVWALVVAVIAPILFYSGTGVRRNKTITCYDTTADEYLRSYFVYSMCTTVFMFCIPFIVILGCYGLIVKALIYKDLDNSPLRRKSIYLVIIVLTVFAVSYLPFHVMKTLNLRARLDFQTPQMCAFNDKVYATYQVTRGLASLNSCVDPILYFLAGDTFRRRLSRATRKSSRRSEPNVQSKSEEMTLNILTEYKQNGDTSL

For the compound `[BH3-][P@@](=O)(OC[C@H]1O[C@@H](n2cnc3c(N)ncnc32)[C@H](O)[C@@H]1O)OP(=O)([O-])[O-].[Na+].[Na+].[Na+]` [analogue 2A, ADP(α-B)], the “% hydrolysis of human eNPP1” value in the data set with human eNPP1 is 5%.
Take `[BH3-][P@](=O)(OC[C@H]1O[C@@H](n2cnc3c(N)nc(SC)nc32)[C@H](O)[C@@H]1O)OP(=O)([O-])[O-].[Na+].[Na+].[Na+]` [analogue 3B, 2-Methylthioadenosine 5′-O-(′-Borano)diphosphate, B Isomer]: in the data set on blood glucose levels [1], the “effect on blood glucose levels” value is “ineffective”.
On to `Nc1ncnc2c1ncn2[C@@H]1O[C@H](COP(=O)(O)OP(=O)(O)O)[C@@H](O)[C@H]1O` [ADP, adenosine 5′ diphosphate, reference compound], for which the “% hydrolysis of human eNPP1” value in the data set on human eNPP1 is given as 25%.
Usually EC50 stands for the concentration that produces a half-maximal response. The compound `[BH3-][P@@](=O)(OC[C@H]1O[C@@H](n2cnc3c(N)nc(SC)nc32)[C@H](O)[C@@H]1O)OP(=O)([O-])[O-].[Na+].[Na+].[Na+]` [analogue 3A, 2-Methylthioadenosine 5′-O-(′-Borano)diphosphate, A Isomer] yielded an EC50 on turkey P2Y1 receptor [2] of 0.038 µM. The “agonist activity at P2Y2 receptor” value with P2Y2 receptor is given as “no activity”. In addition, the “agonist activity at P2Y4 receptor” value in the data set on P2Y4 receptor is “no activity”. Further, in the data set with P2Y6 receptor, the “agonist activity at P2Y6 receptor” value is on record as “no activity”. The “% hydrolysis of human eNPP1” value in the data set on human eNPP1 is given as 4%. The “blood glucose level after glucose load” value with blood glucose levels [3] was “ca. 87 mg/dL”. In addition, the “effect on blood glucose levels, dose comparison” value with blood glucose levels [1] (10 and 30 mg/kg iv) is on record as “higher dose being more effective at reducing the glucose load”. For the same compound, in the data set with blood glucose levels [4], the “effect on blood glucose levels” value was “lower blood glucose levels to normal values”. In addition, in the data set on blood glucose levels [5], the “effect on blood glucose levels” value is on record as “lower blood glucose levels to normal values”. Moreover, in the data set with tail bleeding, the bleeding time entry is reported as “increased” and the “tail bleeding blood volume” value is “increased”. The “solubility in aqueous media” value in [6] is “highly soluble”.
For “P^1-Borano P^1,P^3-5′-Di-2-methylthioadenosine 5′-Triphosphate, A Isomer [analogue 4A]”, the EC50 at turkey P2Y1 receptor [2] (setting [9]) was 0.14 µM.
`BP(=O)(OCC1OC(n2cnc3c(N)ncnc32)C(O)C1O)OP(=O)(O)OP(=O)(O)OCC1OC(n2cnc3c(N)ncnc32)C(O)C1O` (stereo not drawn) [Ap3(α-B)A]: the EC50 was 0.76 µM at turkey P2Y1 receptor [7] (first-named (A) isomer) and 0.8 µM on turkey P2Y1 receptor [7] (second-named (B) isomer).
Consider “P1-Borano P1,P3-5′-Di-2-methylthioadenosine 5′-Triphosphate [analogue 4]”, for which the “fold increase in potency at P2Y1R by MeS substitution at C2” value on turkey P2Y1 receptor [2] (analogue 4 isomers vs Ap3(α-B)A isomers) is listed as 4.6 fold.
`CSc1nc(N)c2ncn([C@@H]3O[C@H](COP(=O)(O)OP(=O)(O)O)[C@@H](O)[C@H]3O)c2n1` [2-MeS-ADP, reference compound]: the “% hydrolysis of human eNPP1” value with human eNPP1 worked out at 16%.
As to “P^1-Borano P^1,P^3-5′-Di-2-methylthioadenosine 5′-Triphosphate, B Isomer [analogue 4B]”, on turkey P2Y1 receptor [2] (setting [9]), the half-maximal effective concentration (EC50) turned out to be 0.19 µM.
For `[BH3-]P(=O)(OC[C@H]1O[C@@H](n2cnc3c(N)nc(SC)nc32)[C@H](O)[C@@H]1O)OP(=O)([O-])[O-].[Na+].[Na+].[Na+]` (stereo partly shown) [analogue 3, 2-Methylthioadenosine 5′-O-(′-Borano)diphosphate], the “hydrolysis rate constant at pH 1.4” value in data set [8] is on record as 2 × 10^−5 s^−1. Besides, the “effect on blood glucose levels” value with blood glucose levels [1] is listed as “less effective than analogue 3A alone”.
As to `[BH3-][P@@](=O)(OC[C@H]1O[C@@H](n2cnc3c(N)nc(SC)nc32)[C@H](O)[C@@H]1O)OP(=O)([O-])OP(=O)([O-])[O-].[Na+].[Na+].[Na+].[Na+]` [analogue 1A, 2-methylthio-ATP(α-B)], the “increase of insulin secretion over basal secretion” value with isolated rat pancreas was “up to 9 fold”. The “insulin secretion in vivo” value in the data set on insulin secretion was “failed to induce insulin secretion in vivo”.
